Measured values published in US9649333B2, “Oxygenation procedures for newborns and devices for use therein” (UTI Limited Partnership, priority 2008, dated 2017).
Where two headings read alike, the source gives them in different places.

Tested on: preterm infants
Settings: for time immediately after birth to reach the target range: FIG. 3
Description: Blinded, randomized control trial of delivery room resuscitation in infants 32 weeks gestation comparing three O2 strategies. The High O2 Burden (HOB) group received a static concentration of 100% O2. In the Moderate O2 Burden (MOB) and Low O2 Burden (LOB) groups, resuscitation started with 100% and 21% O2, respectively. The inspired oxygen concentration was adjusted by 20% every 15 seconds in the MOB and LOB groups until the target SpO2 range of 85% to 92% was reached. SpO2 measurements were recorded every 2 seconds from the right wrist (pre-ductal) and the maximum sensitivity setting of the pulse oximetry was used. An anesthesia monitor continuously measured and recorded respiratory parameters including the peak inspiratory pressure, respiratory rate, end-tidal CO2 and inspired O2 concentration.
There were three sets of preterm infants that were part of this study. The LOB (low oxygen burden group—resuscitation began with room air given followed by a 20% increase every 15 sec as long as the oxygen saturation was less than 85%), MOB ([…] began with 100% oxygen given and decreased 20% every 15 sec as long as the oxygen saturation was greater than 92%) and HOB (high oxygen burden group—100% oxygen given continuously). The inventors enrolled 106 preterm infants (≦32 weeks gestation) (LOB=34, MOB=[…]).

[1] = HOB group: static 100% O2, target SpO2 85-92%
[2] = LOB group: start 21% O2, titrated
[3] = LOB group: start 21% O2, titrated, target SpO2 85-92%
[4] = MOB group: start 100% O2, titrated
[5] = MOB group: start 100% O2, titrated, target SpO2 85-92%

O=O [oxygen]
Mean duration of resuscitation (HOB group: static 100% O2): 590.62 s | mean proportion of resuscitation time spent in the target SpO2 range (85-92%) (HOB group: static 100% O2): 11% | Mean proportion of time above target [1]: 0.49 | Mean proportion of time below target [1]: 0.40 | proportion of time above range [1]: 49% | time immediately after birth to reach the target range (HOB group, target SpO2 85-92%): approximately 5 minutes | Mean proportion of time in target (High O2 Burden (HOB) group: static 100% O2, target SpO2 85-92%): 0.11 | Mean duration of resuscitation [2]: 677.00 s | mean proportion of resuscitation time spent in the target SpO2 range (85-92%) [2]: 16% | Mean proportion of time above target [3]: 0.23 | Mean proportion of time below target [3]: 0.61 | proportion of time below range [3]: 61% | Mean proportion of time in target (Low O2 Burden (LOB) group: start 21% O2, adjusted by 20% every 15 seconds, target SpO2 85-92%): 0.16 | more time in target range than the LOB group (MOB group versus LOB group, target SpO2 85-92%): approximately 25% | Mean duration of resuscitation [4]: 665.00 s | mean proportion of resuscitation time spent in the target SpO2 range (85-92%) [4]: 21% | Mean proportion of time above target [5]: 0.28 | Mean proportion of time below target [5]: 0.51 | time immediately after birth to reach the target range (MOB group, target SpO2 85-92%): approximately 5 minutes | Mean proportion of time in target (Moderate O2 Burden (MOB) group: start 100% O2, adjusted by 20% every 15 seconds, target SpO2 85-92%): 0.21
